Data: paper PMC7096397, “Improving the drug-likeness of inspiring natural products - evaluation of the antiparasitic activity against Trypanosoma cruzi through semi-synthetic and simplified analogues of licarin A” (Scientific Reports, 2020)
Read-outs that look alike come from different tables or passages of the source.

Assays:
[1] = PAMPA-BBB model; assay type: in vitro ADME
Method: The methodology herein applied was similar to that described in the previous section, however with the purpose of assessing the permeability of the compounds through the blood brain barrier (BBB). Thus, stock solutions (10 mM) of each test compound were prepared in DMSO and diluted with phosphate buffered saline (PBS) at pH 7.4. The final concentration of donor solutions was 300 μM and DMSO of 5%. Artificial membrane lipid solutions were prepared daily by dissolving, in n-dodecane, the porcine brain lipid extracted as described[40] at the final concentration of 2% (m/v). PAMPA procedure was similar to that described in the previous section although, in PAMPA-BBB, the donor and acceptor solutions were prepared using phosphate buffer saline (PBS) at pH 7.4 and the Papp was obtained through the equation previously reported.

[2] = PAMPA intestinal model (GIT); assay type: in vitro ADME
Method: Intestinal permeability of tested compounds was estimated applying the PAMPA model previously developed and validated. Briefly, stock solutions were prepared in dimethyl sulfoxide (DMSO) at the concentrations of 10 mM and then diluted with Tris buffer to give the final concentration donor solution at 300 µM and 5% DMSO. The assay procedure was initiated by filling each well of the microtiter plate (MultiScreen, catalogue no. MATRNPS50, Millipore Corporation, Bedford, MA, USA) with 300 μL of each donor drug solution. Carefully, and avoiding the pipette tip contact with the filter, the hydrophobic filter (0.45 μm) of each acceptor well of the 96-well microfilter plate (MultiScreen-IP, catalogue no. MAIPNTR10, Millipore Corporation, Bedford, MA, USA) was adsorbed with 6 μL of the artificial lipid solution which was composed of 2% of L-α-phosphatidylcholine from soybean dissolved, by sonication, in n-dodecane. Immediately after this application, 150 μL of Tris buffer containing 5% DMSO was added to the receiving well. The receiving well was mounted on the donor plate, keeping the underside of the membrane in contact with the donor solution. The assembled donor–acceptor plates were incubated under constant stirring (3 g) at 25 °C for approximately 16 h. Subsequently, the quantity of each compound presented at the receptor solution (150 μL) was determined by UV/VIS spectrophotometrically.

[3] = tested on: T. cruzi (Y strain) trypomastigotes; assay: Anti-trypomastigote assay (resazurin viability); assay type: cell-based, Trypanosoma cruzi; conditions: for IC50: read-out: IC50 trypo
Method: (§1) The cells and parasites were kept at 37 °C in a humidified atmosphere containing 5% CO2.
Benznidazole was used as the standard drug. The optical density was determined in FilterMax F5 (Molecular Devices) at 570 nm[38].
(§2) IC50 and CC50 values were calculated using a sigmoid dose-response curves in Graph–Pad Prism 5.0 software (GraphPad Software - San Diego, CA, USA). For the mechanism of action studies one-way ANOVA (Turkey’s Multiple Comparison test) was used for significance (p < 0.05). The assays were repeated at least twice and the samples were tested in duplicate.

[4] = tested on: T. cruzi intracellular amastigotes; assay: Anti-amastigote assay in infected peritoneal macrophages (infection index); assay type: cell-based, Trypanosoma cruzi; conditions: 48 h, read-out: IC50 Ama
Method: as §1
The cells were plated on a 16-well chamber slide – NUNC (Thermo Fisher Scientific) at 1 × 10^5 cells/well and incubated for 24 h at 37 °C in a 5% CO2 humidified incubator. […] Tested compounds were subsequently incubated with infected macrophages for 48 h at 37 °C (5% CO2 humidified incubator) in different nontoxic concentrations. Benznidazole was used as standard drug. At the end of the assay, slides were fixed with MeOH and stained with Giemsa, counted under a light microscope (EVOS M5000, Thermo, USA) and IC50 values were determined by the infection index.
as §2

[5] = Cytotoxicity against mammalian cells (MTT); assay type: cell-based, Murine; conditions: mouse, NCTC clone L929 cells
Method: Rhesus monkey kidney cells (LLC-MK2-ATCC CCL 7) were used for the maintenance of trypomastigotes of T. cruzi (Y strain) using RPMI-1640 medium supplemented with 2% fetal bovine serum (FBS). The cells and parasites were kept at 37 °C in a humidified atmosphere containing 5% CO2. Peritoneal macrophages, used in the experiments of anti-amastigote assay, were obtained by washing the peritoneal cavity of BALB/c mice, with RPMI-1640 medium supplemented with 10% FBS and kept at 37 °C in a 5% CO2 humidified incubator. Murine conjunctive cells (NCTC clone 929, ATCC) and LLC-MK2 were kept in RPMI-1640 supplemented with 10% FBS at the same conditions described above.
NCTC cells-clone L929 (6 × 10^4 cells/well) were seeded and incubated with tested compounds (200–1.56 µM) for 48 h at 37 °C in a 5% CO2 humidified incubator. Cytotoxic concentration (CC50) was determined by MTT assay. Optical density was determined in FilterMax F5 (Molecular Devices) at 570 nm. Selectivity Index (SI) was determined using the following ratio: CC50 against NCTC cells/IC50 against parasites.
as §2

[6] = tested on: T. cruzi trypomastigotes; assay: Reactive oxygen species (ROS) generation, H2DCFDA probe; assay type: cell-based, Trypanosoma cruzi; conditions: at IC50, 1 h of treatment
Method: After, H2DCFDA probe (Molecular Probes) was added (5 µM) and incubated by 15 min[44]. The fluorescence intensity was measure using a fluorimetric microplate reader (FilterMax F5 Multi-Mode, Molecular Devices) with excitation and emission wavelengths of 485 and 520 nm, respectively. Azide (10 mM) was used as positive control and untreated parasites were used as negative control.

[7] = tested on: T. cruzi trypomastigotes; assay: Mitochondrial membrane potential, JC-1 flow cytometry; assay type: cell-based, Trypanosoma cruzi; conditions: at IC50, 2 h
Method: The ΔΨm were analyzed by flow cytometry (Attune NxT flow cytometer - ThermoFisher) with the probe 5,5′,6,6′-tetrachloro-1,1′,3,3′-tetraethylbenzimidazole carbocyanide iodide (JC-1, ThermoFisher). The ratio between red/green fluorescence intensities (BL-2/BL-1; 590 nm/530 nm) were calculated[45],[46]. […] The parasites were incubated in the dark for 10 min at 37 °C and washed in HBSS + Glu to eliminate the non-internalized dye. As internal controls of the assay were used: (i) non-treated cells and (ii) trypomastigotes treated with 100 μM CCCP.

[8] = Trypanosoma cruzi, T. cruzi trypomastigotes, 24 h incubation, resazurin
[9] = Trypanosoma cruzi, Peritoneal macrophage, in Mus musculus, intracellular amastigotes in BALB/c peritoneal macrophages
[10] = PAMPA-BBB model, 300 µM donor, PBS pH 7.4, read-out: Papp BBB
[11] = PAMPA intestinal model, 300 µM donor, Tris buffer, 25 °C, 16 h, read-out: Papp GIT

| Molecule | Papp at 16 h, 300 µM ([1]; PAMPA, pH 7.4) [×10⁻⁶ cm/s] | Papp at 16 h, 300 µM ([2]; PAMPA) [×10⁻⁶ cm/s] | IC50 [3, 8] [µM] | IC50 [4, 9] [µM] | CC50 at 48 h [5] [µM] | further results |
| --- | --- | --- | --- | --- | --- | --- |
| COc1cc(CO)ccc1O [compound 3, vanillyl alcohol] | 0.64 | 0.18 | > 100 | > 100 | > 200 | – |
| C=CCc1cc(C=O)cc(OC)c1O [2d, 3-allyl-4-hydroxy-5-methoxy-benzaldehyde] | 1.25 | 1.57 | > 100 | > 100 | > 200 | – |
| C/C=C/c1cc(OC)c2c(c1)[C@H](C)[C@@H](c1ccc(O)c(OC)c1)O2 [compound 1, Licarin A] | 2.37 | 0.85 | 54.3 ± 8.9 | > 100 | > 200 | – |
| C=CCOc1ccc([C@H]2Oc3c(OC)cc(/C=C/C)cc3[C@@H]2C)cc1OC [1c, (2S,3 S)-2-(4-allyloxy-3-methoxy-phenyl)-7-methoxy-3-methyl-5-[(E)-prop-1-enyl]-2,3-dihydrobenzofuran] | 0.24 | 0.43 | > 100 | > 100 | > 200 | – |
| COc1ccc(CO)cc1OC [3a, (3,4-dimethoxyphenyl)methanol] | – | – | > 100 | > 100 | > 200 | Papp at 16 h, 300 µM [1, 10]: 2.18 ×10⁻⁶ cm/s; Papp at 16 h, 300 µM [2, 11]: 2.22 ×10⁻⁶ cm/s |
| C/C=C/c1cc(OC)c2c(c1)[C@H](C)[C@@H](c1ccc(OC(C)=O)c(OC)c1)O2 [1b, [2-methoxy-4-[(2S,3 S)-7-methoxy-3-methyl-5-[(E)-prop-1-enyl]-2,3-dihydrobenzofuran-2-yl]phenyl] acetate] | 0.34 | 1.02 | 17.9 ± 2.9 | > 100 | 67.2 ± 24.6 | – |
| C=CCc1ccc(OC)c(OC)c1 [5a, 4-allyl-1,2-dimethoxy-benzene] | – | – | – | – | > 200 | Papp at 16 h, 300 µM [1, 10]: 1.56 ×10⁻⁶ cm/s; Papp at 16 h, 300 µM [2, 11]: 2.35 ×10⁻⁶ cm/s; IC50 ([3]; Trypanosoma cruzi, 24 h): > 100 µM; IC50 ([4]; Trypanosoma cruzi, Peritoneal macrophage, in Mus musculus): > 100 µM |
| COc1cc(C=O)ccc1OC(C)=O [2b, (4-formyl-2-methoxy-phenyl) acetate] | 4.7 | 17.4 | > 100 | 5.6 ± 0.3 | > 200 | fraction unbound at 16 h, 300 µM [2]: < 0.1 |
| O=C(Cn1ccnc1[N+](=O)[O-])NCc1ccccc1 [Bnz, benznidazole, reference compound] | – | – | 5.5 ± 0.9 | 18.7 ± 2.6 | > 200 | – |
| C=CCc1cc(CO)cc(OC)c1O [3d, 2-allyl-4-(hydroxymethyl)-6-methoxy-phenol] | 3.47 | 3.47 | > 100 | > 100 | > 200 | ROS generation [6]: increased the reactive oxygen species (ROS) levels; mitochondrial membrane potential [7]: induced hyperpolarization of mitochondrial membrane potential |
| isoeugenol [compound 4] | – | – | – | – | – | IC50 ([3]; T. cruzi trypomastigotes, 24 h incubation, resazurin): 50.7 ± 17.4 µM; IC50 ([4]; intracellular amastigotes in BALB/c peritoneal macrophages): > 100 µM |
| C/C=C/c1cc(OC)c2c(c1)[C@H](C)[C@@H](c1ccc(OC)c(OC)c1)O2 [1a, (2S,3 S)-2-(3,4-dimethoxyphenyl)-7-methoxy-3-methyl-5-[(E)-prop-1-enyl]-2,3-dihydrobenzo-furan] | 4.26 | 0.42 | 28 ± 10.2 | > 100 | > 200 | – |
| C=CCOc1ccc(C=O)cc1OC [2c, 4-allyloxy-3-methoxy-benzaldehyde] | 5.35 | 1.6 | > 100 | > 100 | > 200 | – |
| C=CCOc1ccc(CO)cc1OC [3c, (4-allyloxy-3-methoxy-phenyl)methanol] | 4.74 | 1.9 | > 100 | > 100 | > 200 | – |
| COc1cc(C=O)ccc1O [compound 2, vanillin] | – | – | > 100 | 5.5 ± 0.6 | > 200 | Papp at 16 h, 300 µM [1, 10]: 6.15 ×10⁻⁶ cm/s; Papp at 16 h, 300 µM [2, 11]: 1.41 ×10⁻⁶ cm/s |

More lines, main results first:

| Papp at 16 h, 300 µM ([1]; PAMPA, pH 7.4) [×10⁻⁶ cm/s] | Papp at 16 h, 300 µM ([2]; PAMPA) [×10⁻⁶ cm/s] | IC50 [3, 8] [µM] | IC50 [4, 9] [µM] | Molecule | CC50 at 48 h [5] [µM] | further results |
| --- | --- | --- | --- | --- | --- | --- |
| 0.32 | 1.21 | > 100 | > 100 | C=CCOc1ccc(CC=C)cc1OC [5c, 4-allyl-1-allyloxy-2-methoxy-benzene] | > 200 | – |
| 0.32 | 0.65 | > 100 | > 100 | C=CCc1cc(CC=C)c(O)c(OC)c1 [5d, 2,4-diallyl-6-methoxy-phenol] | > 200 | – |
| 0.74 | 1.2 | 21.2 ± 3.7 | 10.4 ± 0.9 | C=CCc1cc(/C=C/C)cc(OC)c1O [4d, 2-allyl-6-methoxy-4-[(E)-prop-1-enyl]phenol] | > 200 | – |
| 2.28 | 2.81 | > 100 | > 100 | C=CCc1ccc(OC(C)=O)c(OC)c1 [5b, (4-allyl-2-methoxy-phenyl) acetate] | > 200 | – |
| 1.32 | 15 | 54.6 ± 10.2 | > 100 | C/C=C/c1ccc(OC(C)=O)c(OC)c1 [4b, [2-methoxy-4-[(E)-prop-1-enyl]phenyl] acetate] | > 200 | fraction unbound at 16 h, 300 µM [2]: < 0.1 |
| 0.2 | 0.13 | > 100 | > 100 | C=CCOc1ccc(/C=C/C)cc1OC [4c, 1-allyloxy-2-methoxy-4-[(E)-prop-1-enyl]benzene] | > 200 | anti-T. cruzi activity (in words) ([3]; Table 1 assays): did not display activity |
